Six molecules from ChEMBL document CHEMBL1157148, “Synthesis of eudistomin D analogues and its effects on adenosine receptors” (Bioorg Med Chem, 2008) can be followed below.

For one experiment, the target named is T1, Adenosine receptor A1 (Homo sapiens, UniProt P30542).
T1 sequence (P30542 whole entry): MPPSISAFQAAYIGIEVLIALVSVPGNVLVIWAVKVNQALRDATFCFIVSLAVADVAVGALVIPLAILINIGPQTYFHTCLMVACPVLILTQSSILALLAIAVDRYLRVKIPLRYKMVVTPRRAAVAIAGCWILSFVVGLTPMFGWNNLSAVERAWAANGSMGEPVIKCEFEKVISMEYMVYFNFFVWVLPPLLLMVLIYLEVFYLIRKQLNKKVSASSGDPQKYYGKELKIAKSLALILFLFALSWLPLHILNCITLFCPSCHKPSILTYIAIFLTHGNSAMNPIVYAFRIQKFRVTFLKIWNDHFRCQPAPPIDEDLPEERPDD
Put plainly: Displacement of [3H]DPCPX from human recombinant adenosine A1 receptor expressed in HEK293T cells. It counts as cell-based, HEK-293T. (In general: Loss of bound radioactivity is the signal in a displacement assay; it reports binding, not function.)

A further experiment concerns the target T2, Adenosine receptor A3 (Homo sapiens, UniProt P0DMS8).
T2 sequence (P0DMS8 whole entry): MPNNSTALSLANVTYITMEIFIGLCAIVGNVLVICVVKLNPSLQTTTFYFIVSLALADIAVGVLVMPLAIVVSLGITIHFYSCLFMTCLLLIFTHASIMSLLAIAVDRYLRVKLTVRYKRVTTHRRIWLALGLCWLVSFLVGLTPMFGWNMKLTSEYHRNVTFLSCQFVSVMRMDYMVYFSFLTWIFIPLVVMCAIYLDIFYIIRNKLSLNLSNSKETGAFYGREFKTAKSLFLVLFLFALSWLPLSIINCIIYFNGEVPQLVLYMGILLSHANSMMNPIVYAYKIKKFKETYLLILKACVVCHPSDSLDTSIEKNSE
Description: Displacement of [3H]NECA from human recombinant adenosine A3 receptor expressed in HEK293T cells. It counts as cell-based, HEK-293T.

Another experiment has as its target Adenosine receptor A2a (Homo sapiens, UniProt P29274). Put plainly: biochemical.

Structures are written as SMILES.

Sequence of Adenosine receptor A2a (P29274 whole entry): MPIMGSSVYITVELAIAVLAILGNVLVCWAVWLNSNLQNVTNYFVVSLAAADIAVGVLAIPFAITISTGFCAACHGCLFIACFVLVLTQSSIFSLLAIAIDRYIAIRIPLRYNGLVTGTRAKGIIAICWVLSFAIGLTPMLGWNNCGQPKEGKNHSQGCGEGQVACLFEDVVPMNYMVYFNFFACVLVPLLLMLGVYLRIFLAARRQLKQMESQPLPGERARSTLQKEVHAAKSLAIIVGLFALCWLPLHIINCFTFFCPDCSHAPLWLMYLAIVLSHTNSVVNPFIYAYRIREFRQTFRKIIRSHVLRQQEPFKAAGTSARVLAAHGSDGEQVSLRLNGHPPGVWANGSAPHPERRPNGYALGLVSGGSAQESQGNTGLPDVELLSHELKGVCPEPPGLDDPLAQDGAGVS
Description for Adenosine receptor A2a: Displacement of [3H]CGS21680 from human recombinant adenosine A2A receptor expressed in HEK293T cells

In the case of `Cc1cc2c(c(C)c1O)c1ccncc1n2C`, the Ki on Adenosine receptor A1 was above 100 µM; at Adenosine receptor A3, 43.4 µM; at Adenosine receptor A2a, 80.6 µM.

In the case of `Cc1cc2[nH]c3cccnc3c2c(C)c1O`, the Ki was above 100 µM on Adenosine receptor A1, 4.43 µM at Adenosine receptor A3 and 24.9 µM on Adenosine receptor A2a.

In the case of `Cc1cc2[nH]c3cnccc3c2c(C)c1O`, the Ki at Adenosine receptor A1 is above 100 µM; on Adenosine receptor A3, 17.7 µM; on Adenosine receptor A2a it was above 100 µM.

Consider `Cc1cc2c(c(C)c1O)c1ncccc1n2C`, for which the Ki is above 100 µM at Adenosine receptor A1, 13.3 µM on Adenosine receptor A3 and 44.1 µM at Adenosine receptor A2a.

For `Cc1cc2c(c(C)c1O)c1cc[n+](C)cc1n2C`, the Ki on Adenosine receptor A1, at Adenosine receptor A3 and at Adenosine receptor A2a was above 100 µM in each case.

With `Cc1cc2[nH]c3c[n+](C)ccc3c2c(C)c1O`, the Ki at Adenosine receptor A1 is above 100 µM; on Adenosine receptor A3, 29.7 µM; on Adenosine receptor A2a, above 100 µM.

Usually Ki stands for the dissociation constant of the complex between target and ligand, obtained from inhibition or displacement.
